Reference: patent US20060035907A1, “Methods of treating abnormal cell growth using c-MET and m-TOR inhibitors” (priority 2004, published 2006)

Assays:
caspase-3 = test: Caspase-3 activity in cell lysates; type: cell-based, murine; conditions: compared to DMSO treated cells, 18 h, n=3, p<0.03
Experimental: (§1) Apoptosis assays. The activity of caspase-3-was measured in cell lysates (CaspACE Assay System, Promega) and Annexin V positive staining was determined by FACS analysis (Annexin-V-Fluos Staining Kit, Roche Diagnostics) according to the manufacturer's directions in cells that were either treated with PHA665752 or the solvent DMSO.
(§2) Referring to FIG. 2, TPR-MET transformed BaF3 cells were treated for 18 h with either DMSO or the indicated amount of PHA665752 (n=3). A: Annexin V and propidiumiodide staining was determined by flow cytometry. B: Activity of caspase-3 was determined in cell lysate (n=3). C: The percentage of cells in different cell cycle phases was determined by flow cytometry after propidiumiodide staining (n =3).

BaF3.TPR-MET cells = test: Transwell migration assay; type: cell-based, murine; conditions: Mus musculus, compared to DMSO treated cells, n=4, read-out: inhibition of the cell migration
Experimental: (§3) Referring to FIG. 1, BaF3 cells lines transformed by tyrosine kinase oncogenes were used to determine cell growth (A-C) or transwell migration (D) in response to the small molecule c-MET kinase inhibitor PHA665752. A: The relative growth of BaF3 cells transformed by TPR-MET in response to different concentrations of PHA665752 was determined after 18 h (n=3). B: TPR-MET transformed BaF3 cells were either left untreated (♦) or treated (▴) with PHA665752 (1 μM) for the indicated time in the presence or absence of IL-3 (n=3). C: BaF3 cells transformed by tyrosine kinase oncogenes were treated for 18 h with PHA665752 (1 μM) (n=3). D: Cells were treated for 18 hr with the indicated dose of PHA665752 and the spontaneous transwell migration relative to DMSO-treated cells determined (n=4).

p70-S6K[Thr421/Ser424] = test: Immunoblotting, phospho-p70-S6K[Thr421/Ser424] in TPR-MET transformed BaF3 cells; type: cell-based, murine; conditions: FIG. 4C
Experimental: (§4) Immunoblotting. Proteins were extracted from whole cells by lysing them in a Tris buffer (50 mM, pH 8.0) containing NaCl (150 mM), NP40 (1%, v/v), deoxycholic acid (0.5%, w/v), sodium dodecylsulfate (0.1%, w/v), NaF (1 mM), Na3VO4 (1 mM) and glycerol (10%, v/v) (Sigma, St. Louis, Mo.) supplemented with a protease inhibitor cocktail (complete, Roche, Indianapolis, Ind.). Polyclonal antibodies against p70-S6K (Biosource International, Camarillo, Calif.), total c-MET (C-12, Santa Cruz, Santa Cruz, Calif.), phosphatidylinositol-3′-kinase (Upstate Biotechnology, Lake Placid, N.Y.) and phosphorylated AKT[Ser473] or p70-S6K[Thr421/Ser424] (Cell Signaling, Beverly, Mass.), phospho-MET[Tyr1230/1234/1235] (Biosource International, Camarillo, Calif.) as well as phosphotyrosine (4G10, Upstate Biotechnology, Lake Placid, N.Y.) were used for immunoblotting.
(§5) Referring to FIG. 4, phosphorylation of cellular proteins was determined by immunoblotting in whole cell lysate as indicated using anti-phosphotyrosine antibody (4G10) (A), total c-MET antibody, anti-pY1230/1234/1235-MET antibody (recognizing the corresponding pY361/365/366 sites in TPR-MET), anti-pY1349-MET (recognizing the pY480 site in TPR-MET) and anti-pY1365-MET (recognizing the pY496 site in TPR-MET) phospho-antobodies (B), and phospho-AKT and phospho-S6K antibodies (C). […]

[1] = system: tyrosine phosphorylation of cellular proteins in BCR-ABL transformed BaF3 cells; test: Immunoblotting, tyrosine phosphorylation of cellular proteins in BCR-ABL transformed BaF3 cells; type: cell-based, murine; conditions: BCR-ABL transformed BaF3 cells (data not shown)
Experimental: as §4

AKT[Ser473] = test: Immunoblotting, phospho-AKT[Ser473] in TPR-MET transformed BaF3 cells; type: cell-based, murine; conditions: FIG. 4C
Experimental: as §4, §5

[2] = system: TEL-ABL transformed BaF3 cells; test: Cell growth of TEL-ABL transformed BaF3 cells; type: cell-based, murine; conditions: 0.2 μM, 18 hours, FIG. 1C
Experimental: (§6) Cells. The murine pre-B cell line BaF3 was grown in RPMI 1640 containing 10% fetal calf serum and 10% WEHI-conditioned medium as a source of murine IL-3. BaF3 cell lines transfected with a BCR/ABL, TEUABL, TEUJAK2, or TEUPDGFβR cDNA were grown in the absence of growth factors. A TPR/MET expressing BaF3 cell line was generated by transfection of an expression vector containing the TPR/MET cDNA as previously described (Sattler, M., Pride, Y. B., Ma, P., Gramlich, J. L., Chu, S. C., Quinnan, L. A., Shirazian, S., Liang, C., Podar, K., Christensen, J. G. & Salgia, R. (2003). Cancer Res, 63, 5462-9.). The number of viable cells after treatment with DMSO or PHA665752 was determined using an MTT assay (In Vitro Toxicology Assay Kit, Sigma, St. Louis, Mo.) or trypan blue exclusion.
as §3, with “B: TPR-MET transformed BaF3 cells were either left untreated (♦) or treated (▴) with PHA665752 (1 μM) for the indicated time in the presence or absence of IL-3 (n=3). C: BaF3 cells transformed by tyrosine kinase oncogenes were treated for 18 h with PHA665752 (1 μM) (n=3).” left out

[3] = system: TEL-JAK2 transformed BaF3 cells; test: Cell growth of TEL-JAK2 transformed BaF3 cells; type: cell-based, murine; conditions: 0.2 μM, 18 hours, FIG. 1C
Experimental: as §6
as §3, with “B: TPR-MET transformed BaF3 cells were either left untreated (♦) or treated (▴) with PHA665752 (1 μM) for the indicated time in the presence or absence of IL-3 (n=3). C: BaF3 cells transformed by tyrosine kinase oncogenes were treated for 18 h with PHA665752 (1 μM) (n=3).” left out

TPR-MET = biological target: T1, TPR-MET (Homo sapiens, UniProt P08581); test: Immunoblotting, TPR-MET autophosphorylation with phosphospecific antibodies; type: cell-based; conditions: TPR-MET transformed BaF3 cells, FIG. 4B
T1 construct: TPR portion (fusion partner, nucleoprotein TPR; human entry would be P12270); expressed in transfected cells; host or cells: BaF3 (murine pre-B cell line); the other entry of the earlier key: TPR (P12270, Nucleoprotein TPR)
Experimental: as §4, §5

[4] = system: TPR-MET transformed BaF3 cells; test: Apoptosis assay, Annexin V / propidiumiodide staining by FACS; type: cell-based, murine; conditions: 0.2 µM, 18 h
Experimental: as §1, §2

parental BaF3 cells = test: Cell growth of IL-3 stimulated parental BaF3 cells; type: cell-based, murine; conditions: 0.2 μM, 72 hour culture (data not shown)
[5] = system: TEL-PDGFFBR transformed BaF3 cells; test: Cell growth of TEL-PDGFFBR transformed BaF3 cells; type: cell-based, murine; conditions: 0.2 μM, 18 hours, FIG. 1C
Experimental: as §6
as §3, with “B: TPR-MET transformed BaF3 cells were either left untreated (♦) or treated (▴) with PHA665752 (1 μM) for the indicated time in the presence or absence of IL-3 (n=3). C: BaF3 cells transformed by tyrosine kinase oncogenes were treated for 18 h with PHA665752 (1 μM) (n=3).” left out

[6] = system: tyrosine phosphorylation of cellular proteins in BaF3.TPR-MET cells; test: Immunoblotting, tyrosine phosphorylation of cellular proteins in BaF3.TPR-MET cells; type: cell-based, murine; conditions: anti-phosphotyrosine antibody (4G10), FIG. 4A
Experimental: as §4, §5

[7] = system: TPR-MET transformed BaF3 cells; test: Cell cycle analysis (propidiumiodide, FACS); type: cell-based, murine; conditions: 18 h
Experimental: Cell cycle analysis. Fixed cells were stained with propidiumiodide and cell cycle parameters analyzed by FACS analysis.
as §2

[8] = system: BCR-ABL transformed BaF3 cells; test: Cell growth of BCR-ABL transformed BaF3 cells; type: cell-based, murine
Experimental: as §6
as §3, with “B: TPR-MET transformed BaF3 cells were either left untreated (♦) or treated (▴) with PHA665752 (1 μM) for the indicated time in the presence or absence of IL-3 (n=3). C: BaF3 cells transformed by tyrosine kinase oncogenes were treated for 18 h with PHA665752 (1 μM) (n=3).” left out

[9] = system: TPR-MET transformed BaF3 cells; test: Cell growth of TPR-MET transformed BaF3 cells (MTT assay or trypan blue exclusion); type: cell-based, murine
Experimental: as §6, §3
Referring to FIG. 5, the relative growth of BaF3 cells transformed by TPR-MET in response to different concentrations of rapamycin (0.01 nM to 10 nM) was determined in the presence (▴) or absence (▪) of PHA665752 (0.5 μM) after a 3 day culture (n=3).

T1 sequence (P08581 with tags, fused parts or gaps): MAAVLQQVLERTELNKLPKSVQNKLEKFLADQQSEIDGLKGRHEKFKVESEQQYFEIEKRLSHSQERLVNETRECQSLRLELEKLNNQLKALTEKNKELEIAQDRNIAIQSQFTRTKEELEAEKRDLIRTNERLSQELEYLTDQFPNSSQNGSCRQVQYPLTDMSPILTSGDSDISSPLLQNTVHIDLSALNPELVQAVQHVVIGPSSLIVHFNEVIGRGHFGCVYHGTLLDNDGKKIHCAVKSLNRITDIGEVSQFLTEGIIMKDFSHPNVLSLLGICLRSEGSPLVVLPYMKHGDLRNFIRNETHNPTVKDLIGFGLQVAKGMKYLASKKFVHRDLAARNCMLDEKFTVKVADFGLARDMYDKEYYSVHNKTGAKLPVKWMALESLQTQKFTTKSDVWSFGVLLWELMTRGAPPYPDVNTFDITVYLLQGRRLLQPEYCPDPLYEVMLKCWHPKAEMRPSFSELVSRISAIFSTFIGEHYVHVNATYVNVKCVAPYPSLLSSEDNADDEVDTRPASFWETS

autophosphorylation in the catalytic tyrosine kinase domain at Tyr361/365/366, Tyr480 and Tyr496 (TPR-MET): inhibits autophosphorylation
IC50 ([9]; Mus musculus, BaF3.TPR-MET cells, after 18 h, FIG. 1A, read-out: IC50, inhibition of cell growth): < 60 nM
Structure (SMILES): Cc1[nH]c(/C=C2\C(=O)Nc3ccc(S(=O)(=O)Cc4c(Cl)cccc4Cl)cc32)c(C)c1C(=O)N1CCC[C@@H]1CN1CCCC1 [PHA665752, (3Z)-5-[(2,6-dichlorobenzyl)sulfonyl]-3-[(3,5-dimethyl-4-{[(2R)-2-(pyrrolidin-1-ylmethyl)pyrrolidin-1-yl]carbonyl}-1H-pyrrol-2-yl)methylene]-1,3-dihydro-2H-indol-2-one]
increase in caspase-3 activity (caspase-3): 3.5±0.7 fold
inhibition at 0.2 µM (BaF3.TPR-MET cells): 92.5 ± 3%
phosphorylation of the mTOR substrate p70-S6K[Thr421/Ser424] (p70-S6K[Thr421/Ser424]): reduced phosphorylation
tyrosine phosphorylation of cellular proteins [1]: did not alter tyrosine phosphorylation of cellular proteins
serine phosphorylation of AKT[Ser473] (AKT[Ser473]): reduced serine phosphorylation
inhibition of cell growth [2]: did not inhibit cell growth
inhibition of cell growth [3]: did not inhibit cell growth
cells in early apoptosis (Annexin V positive) [4]: 13.9±1.0%
cells in late apoptosis (Annexin V plus propidiumiodide positive) [4]: 19.2±1.8%
number of apoptotic cells (of total population) ([4]; control cells 5%): 33.1%
growth inhibitory effect (parental BaF3 cells): did not observe a significant growth inhibitory effect
inhibition of cell growth [5]: did not inhibit cell growth
tyrosine phosphorylation of cellular proteins [6]: reduced tyrosine phosphorylation of cellular proteins in a dose dependent manner
percentage of cells in G2/M-phase ([7]; 0.2 μM, DMSO 12.2%): 5.5%
percentage of cells in G1-phase ([7]; 0.2 μM, DMSO 42.4%): 77.0%
percentage of cells in S-phase ([7]; 0.2 μM, DMSO 45.4%): 17.5%
cells in sub-G1-phase ([7]; consistent with apoptotic cells): increase of cells in sub-G1-phase
inhibition of cell growth ([8]; 0.2 μM, 18 hours, BCR-ABL transformed BaF3 cells, FIG. 1C): did not inhibit cell growth
effect on cell growth in the presence of IL-3 ([8]; BCR-ABL transformed cells, control experiment, presence of IL-3, 72 hour culture, FIG. 1B): only little effect on cell growth
effect on cell growth in the absence of IL-3 ([9]; BaF3.TPR-MET, absence of IL-3, 72 hour culture, PHA665752 (1 μM) per FIG. 1B legend): completely blocked cell growth
effect on cell growth in the presence of IL-3 ([9]; TPR-MET transformed cells, presence of IL-3, 72 hour culture, PHA665752 (1 μM) per FIG. 1B legend): only little effect on cell growth
